Consider 18 compounds from ChEMBL document CHEMBL5233269, “Anticancer potential of spirocompounds in medicinal chemistry: A pentennial expedition” (Eur J Med Chem, 2021).

Series [1] relates to MCF7. The series can be described thus: Growth inhibition of human MCF7 cells assessed as reduction in cell viability by SRB assay. Format: functional.
The test system of series [2] is COLO 205. The series can be described thus: Growth inhibition of human COLO 205 cells assessed as reduction in cell viability by SRB assay. Format: functional. For orientation: The SRB assay estimates cell density from bound dye.
For series [3], the system named is PC-3. The series can be described thus: Growth inhibition of human PC-3 cells assessed as reduction in cell viability by SRB assay. In kind it is functional.
Series [4] has as its system A-375. The series can be described thus: Cytotoxicity against human A-375 cells at 10 ug/ml incubated for 24 hrs by MTT assay. Format: functional. Conditions: dose 10 µg/ml. (In general: Tetrazolium dyes change colour on reduction, which living cells bring about.)
The subject of series [5] is A-375. The series can be described thus: Cytotoxicity against human A-375 cells at 100 ug/ml incubated for 24 hrs by MTT assay. Format: functional. Conditions: dose 100 µg/ml.
The test system of series [6] is MCF7. The series can be described thus: Anticancer activity against human MCF7 cells assessed as reduction in cell viability. Format: functional, cell-based.
For series [7], the system named is HepG2. The series can be described thus: Anticancer activity against human HepG2 cells assessed as reduction in cell viability. Format: functional, cell-based.
The subject of series [8] is ECa-109 cell line. The series can be described thus: Cytotoxicity against human EC109 cells assessed as inhibition of tumor cell proliferation incubated for 72 hrs by MTT assay. Conditions: ECa-109, 72 h. Format: functional, cell-based.
For series [9], the system named is SMMC-7721. The series can be described thus: Cytotoxicity against human SMMC-7721 cells assessed as inhibition of tumor cell proliferation incubated for 72 hrs by MTT assay. In kind it is functional, cell-based. Conditions: SMMC-7721, 72 h.
Series [10] deals with A549. The series can be described thus: Cytotoxicity against human A549 cells assessed as inhibition of tumor cell proliferation incubated for 72 hrs by MTT assay. In kind it is functional, cell-based. The conditions noted are these: A549, 72 h.
Series [11] concerns MGC-803. The series can be described thus: Cytotoxicity against human MGC-803 cells assessed as inhibition of tumor cell proliferation incubated for 72 hrs by MTT assay. Format: functional, cell-based. Conditions: MGC-803, 72 h.
For series [12], the system named is MCF7. The series can be described thus: Antiproliferative activity against human MCF7 cells assessed as cell growth inhibition. In kind it is functional, cell-based.
Series [13] has as its system MDA-MB-231. The series can be described thus: Antiproliferative activity against human MDA-MB-231 cells assessed as cell growth inhibition. Format: functional, cell-based.
The test system of series [14] is MCF7. The series can be described thus: Cytotoxicity against human MCF7 cells assessed as reduction in cell growth. Format: functional, cell-based.
Series [15] concerns WI-38. The series can be described thus: Cytotoxicity against human WI-38 cells assessed as reduction in cell growth. Format: functional, cell-based.
Series [16] can be described thus: Anticancer activity against human Panel (56 tumour cell lines) at 10 uM relative to control. In kind it is functional.
Series [17] relates to Caco-2. The series can be described thus: Antiproliferative activity against human Caco-2 cells incubated for 72 hrs by MTT assay. In kind it is functional, cell-based. The conditions noted are these: Caco-2, 72 h.
Series [18] has as its system HCT-116. The series can be described thus: Antiproliferative activity against human HCT-116 cells incubated for 72 hrs by MTT assay. Conditions: HCT-116, 72 h. Format: functional, cell-based.
The test system of series [19] is Jurkat. The series can be described thus: Antiproliferative activity against human Jurkat cells incubated for 72 hrs by MTT assay. In kind it is functional, cell-based.
For series [20], the system named is MCF7. The series can be described thus: Antiproliferative activity against human MCF7 cells incubated for 72 hrs by MTT assay. In kind it is functional, cell-based. The conditions noted are these: MCF7, 72 h.
Series [21] relates to MDA-MB-231. The series can be described thus: Antiproliferative activity against human MDA-MB-231 cells incubated for 72 hrs by MTT assay. The conditions noted are these: MDA-MB-231, 72 h. Format: functional, cell-based.
The test system of series [22] is HeLa. The series can be described thus: Antiproliferative activity against human HeLa cells incubated for 72 hrs by MTT assay. Format: functional, cell-based.
Series [23] has as its system CCRF-CEM. The series can be described thus: Antiproliferative activity against human CEM cells incubated for 72 hrs by MTT assay. Format: functional, cell-based.
In series [24] the test system is A549. The series can be described thus: Antiproliferative activity against human A549 cells incubated for 72 hrs by MTT assay. In kind it is functional, cell-based. The conditions noted are these: A549, 72 h.
Series [25] deals with HepG2. The series can be described thus: Antiproliferative activity against human HepG2 cells incubated for 2 days by MTT assay. Format: functional, cell-based. Conditions: HepG2, 48 h.
In series [26] the test system is MCF7. The series can be described thus: Antiproliferative activity against human MCF7 cells incubated for 2 days by MTT assay. In kind it is functional, cell-based. The conditions noted are these: MCF7, 48 h.
In series [27] the test system is HT-29. The series can be described thus: Antiproliferative activity against human HT-29 cells incubated for 2 days by MTT assay. Format: functional, cell-based. Conditions: HT-29, 48 h.
Series [28] relates to T47D. The series can be described thus: Antiproliferative activity against human T47D cells incubated for 2 days by MTT assay. Format: functional, cell-based. Conditions: 48 h.
Series [29] relates to HFF. The series can be described thus: Antiproliferative activity against human HFF cells incubated for 2 days by MTT assay. Format: functional, cell-based. The conditions noted are these: 48 h.
The test system of series [30] is A549. The series can be described thus: Antiproliferative activity against human A549 cells. In kind it is functional, cell-based.
The subject of series [31] is MCF7. The series can be described thus: Antiproliferative activity against human MCF7 cells. Format: functional, cell-based.
In series [32] the test system is K562. The series can be described thus: Antiproliferative activity against human K562 cells measured upto 72 hrs by microscopy based analysis. The conditions noted are these: K562, 72 h. Format: functional, cell-based.
Series [33] deals with U-937. The series can be described thus: Antiproliferative activity against human U-937 cells measured upto 72 hrs by microscopy based analysis. Conditions: U-937, 72 h. Format: functional, cell-based.
In series [34] the test system is MDA-MB-231. The series can be described thus: Cytotoxicity against human MDA-MB-231 cells at 50 ug/ml relative to control. Format: functional. The conditions noted are these: dose 50 µg/ml.
The test system of series [35] is L929. The series can be described thus: Cytotoxicity against mouse L929 cells at 50 ug/ml relative to control. Conditions: at 50 µg/mL. In kind it is toxicity, cell-based.
Series [36] relates to Panel NCI-60 (60 carcinoma cell lines). The series can be described thus: Growth inhibition of human Panel NCI-60 (60 carcinoma cell lines) cells. In kind it is functional.
The subject of series [37] is MCF7. The series can be described thus: Antiproliferative activity against human MCF7 cells assessed as inhibition of cell growth. In kind it is functional, cell-based.
In series [38] the test system is A2780. The series can be described thus: Antiproliferative activity against human A2780 cells assessed as inhibition of cell growth. In kind it is functional, cell-based.
Series [39] concerns HT-29. The series can be described thus: Antiproliferative activity against human HT-29 cells assessed as inhibition of cell growth. In kind it is functional, cell-based.

SMILES strings stand for the structures. Values after ≈ are worked out from the molar mass of the structure shown. Some results are limits rather than exact numbers.

Broadly, the GI50 is the concentration that inhibits growth by half. Turning to `CCOP1(=O)N(CC)N=NC12SC1=CCCCC1=C2C#N` (stereo not given), the GI50 in [1] was 5.03 µM; in [2], 17.8 µM; in series [3], 9.97 µM.
Regarding `CCN1C(=O)C2(c3ccccc31)N(C)CC(n1ccc3ccccc31)C2(C#N)C#N` (stereo not given), the Activity in series [4] is listed as 95.86%; in series [5] it was 85.69%.
For orientation: IC50 means the concentration at which inhibition is half-maximal. With `N#Cc1c(N)nc2c(c1-c1ccc(Cl)cc1)SC1(CCCCC1)N2c1ccc(N)cc1`, the IC50 in series [6] is 30 µg/mL (≈ 67 µM); in series [7], 14.3 µg/mL (≈ 31.9 µM).
`C[C@]12CC[C@H](O)CC1=CCC1C2CC[C@@]2(C)C1CC[C@@H]2C1=CC2(C(=O)Nc3ccc(F)cc32)C(C#N)=C(N)N1` (stereo not given in full): the IC50 was 2.6 µM in [8], 10.9 µM in [9], 21.3 µM in [10] and 13.8 µM in series [11].
For `C[C@]12CC[C@H](O)CC1=CCC1C2CC[C@@]2(C)C1CC[C@@H]2C1=CC2(C(=O)Nc3c(Cl)cccc32)C(C#N)=C(N)N1` (stereo not given in full), in that order: 6.4 µM, 29.2 µM, 33 µM and 17.2 µM.
As for `COP1(=O)N(C)N=NC12SC1=CCCCC1=C2C#N` (stereo not given), the GI50 in [1] was 6.35 µM; in series [2], 18.4 µM; in series [3], 12.4 µM.
As for `O=C1N(C2CCCCC2)C(=O)C2(CC(c3ccccc3O)=NCCO2)N1C1CCCCC1` (stereo not given), the IC50 came out at 66.3 µM in [12] and 97.1 µM in series [13].
Consider `CN1CC(n2ccc3ccccc32)C(C#N)(C#N)C12C(=O)N(Cc1ccccc1)c1ccccc12` (stereo not given), for which the Activity came to 97.29% in series [4] and 95.86% in series [5].
With `CN1C(=O)C2(SCC3C(=O)N(CC(=O)NN)N=C(c4ccc(Cl)c(Cl)c4)C32)c2ccccc21` (stereo not given), the figures for the IC50 in [14] and in series [15] were 8.16 µM and 11.2 µM, respectively.
The term inhibition denotes the share of the control response that was lost under treatment. A high value points to a response far below the control. For the compound `O=C1NC2(CCNCC2)Nc2ccccc21`, the inhibition at 10 µM in [16] stood at 100%.
With `CON1c2ccccc2[C@@]2(CN=C(Nc3cc(C(F)(F)F)cc(C(F)(F)F)c3)S2)[C@@H]1Nc1cc(C(F)(F)F)cc(C(F)(F)F)c1`, the IC50 in series [17] came out at 47 µM; in series [18] it was 65.1 µM; in series [19], 2000 nM; in [20], 2000 nM; in series [21] it was 4 µM; in [22], 3000 nM. For the same compound, the IC50 in [23] stood at 5 µM; in series [24], 2000 nM.
On to `COc1ccc(C2=NOC3(Cc4ccccc4C3=O)C2c2ccc(S(C)(=O)=O)cc2)cc1OC` (stereo not given), for which the IC50 in series [25] worked out at 59 nM; in series [26], 53.7 µM; in series [27] it was 94.6 µM; in [28] it was 21.4 µM; in series [29], 33.9 µM.
On to `N#CC1=C(N)Oc2c(c(=O)oc3ccccc23)C12C(=O)N(Cc1cccc(Br)c1)c1ccccc12` (stereo not given), for which the IC50 in series [30] stood at 29.3 µM; in series [31], 16.2 µM.
Turning to `CC1=CC(=O)C2(C(=O)O1)C(c1ccc(C(C)(C)C)cc1)CC(=O)CC2c1ccc(C(C)(C)C)cc1` (stereo not given), the IC50 in series [32] worked out at 58.6 µM; in [33], 43.7 µM.
`CN1CCN(Cc2ccc([N+](=O)[O-])cc2)P12=NP(N1CCCC1)(N1CCCC1)=NP(N1CCCC1)(N1CCCC1)=N2` (stereo not given): the Activity in series [34] amounted to 30%; in series [35], 70%.
As to `O=C1N(c2ccccc2)C(=O)C2(CC(c3ccccc3O)=NO2)N1C1CCCCC1` (stereo not given), the IC50 was 42.3 µM in [12] and 67.9 µM in series [13].
Regarding `C1=CC2=CC3CCCC4=Cc5ccccc5OC43OC2C=C1` (stereo not given), the GI50 in series [36] is < 10 µM.
For the compound `O=C1CC2(CCN(S(=O)(=O)c3cccc4ccccc34)CC2)Oc2ccccc21`, the IC50 in series [37] was 6.02 µM; in [38] it was 316 nM; in series [39] it was 690 nM.
